Target: human recombinant H-PGDS (Homo sapiens, UniProt O60760)
Assay: Fluorescence Intensity h-PGDS TBA Enzyme Assay
Format: biochemical
Details: 1:175,000 human recombinant H-PGDS, highest inhibitor concentration typically 1 μM
How it was run: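 Recombinant human H-PGDS preincubated 10 min at room temperature with inhibitor in 100 mM Tris pH 8.0, 100 μM MgCl2, 2.5 mM glutathione, 0.5% DMSO; 5.0 μM PGH2 added, stopped after 42 s with FeCl2/citric acid. Remaining PGH2 measured as MDA–TBA fluorescence (ex 530/em 565 nm); IC50 by 4-parameter fit, 11 concentrations.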

Chain of human recombinant H-PGDS (O60760 whole entry): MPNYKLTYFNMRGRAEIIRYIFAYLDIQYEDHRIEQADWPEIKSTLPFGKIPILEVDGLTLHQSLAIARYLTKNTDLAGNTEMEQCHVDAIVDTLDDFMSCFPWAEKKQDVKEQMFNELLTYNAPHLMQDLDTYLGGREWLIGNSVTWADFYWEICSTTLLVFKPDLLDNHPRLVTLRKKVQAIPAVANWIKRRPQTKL

Compound | IC50 [nM]
COc1cccc(-c2ccc(C(=O)NCC(C)(C)OC)cn2)c1 [Example 282, N-(2-Methoxy-2-methylpropyl)-6-(3-methoxyphenyl)nicotinamide] | 959
Cc1cc(Br)ccc1NC(=O)c1ccc(-c2ccccc2)nc1 [Example 398, N-(4-Bromo-2-methylphenyl)-6-phenylnicotinamide] | 3.3
COc1cccc(-c2ccc(C(=O)NC3CCOCC3)cn2)c1 [Example 305, 6-(3-Methoxyphenyl)-N-(tetrahydro-2H-pyran-4-yl)nicotinamide] | 38.7
CN1CCN(CC(NC(=O)c2ccc(-c3cccc(F)c3)nc2)c2ccccc2)CC1 (centres unmarked) [Example 144, 6-(3-Fluorophenyl)-N-[2-(4-methylpiperazin-1-yl)-1-phenylethyl]nicotinamide] | 109
O=C(NCc1ccc(Cl)cc1)c1ccc(-c2ccccc2)nc1 [Example 517, N-(4-Chlorobenzyl)-6-phenylnicotinamide] | 11.8
CCOC(=O)C(CNC(=O)c1ccc(-c2ccccc2)nc1)C1CCCC1 (centres unmarked) [Example 393, Ethyl 2-cyclopentyl-3-{[(6-phenylpyridin-3-yl)carbonyl]amino}propanoate] | 1.96
O=C(Nc1ccccc1)c1ccc(-c2ccc(F)cc2)nc1 [Example 256, 6-(4-Fluorophenyl)-N-phenylnicotinamide] | 145
COc1cccc(-c2ccc(C(=O)NCc3ccc(SC)cc3)cn2)c1 [Example 280, 6-(3-Methoxyphenyl)-N-[4-(methylthio)benzyl]nicotinamide] | 62.4
Cc1ccc(CNC(=O)c2ccc(-c3ccccc3)nc2)cc1 [Example 365, N-(4-Methylbenzyl)-6-phenylnicotinamide] | 4.2
COc1ccc(CNC(=O)c2ccc(-c3cc(F)cc(F)c3)nc2)cc1OC [Example 567, 6-(3,5-Difluorophenyl)-N-(3,4-dimethoxybenzyl)nicotinamide] | 10.6
CNS(=O)(=O)c1ccc(CNC(=O)c2cnc(-c3cccc(F)c3)c(Cl)c2)cc1 [Example 554, 5-Chloro-6-(3-fluorophenyl)-N-{4-[(methylamino)sulfonyl]benzyl}nicotinamide] | 223
Cc1cccc(-c2ccc(C(=O)NCc3ccc(Cl)c(Cl)c3)cn2)c1 [Example 456, N-(3,4-Dichlorobenzyl)-6-(3-methylphenyl)nicotinamide] | 178
CCC(C)NC(=O)c1ccc(-c2cccc(C)c2)nc1 (centres unmarked) [Example 450, N-sec-Butyl-6-(3-methylphenyl)nicotinamide] | 42.5
O=C(NCc1ccc(Cl)c(Cl)c1)c1ccc(-c2ccc(F)cc2)nc1 [Example 475, N-(3,4-Dichlorobenzyl)-6-(4-fluorophenyl)nicotinamide] | ≥ 1000
COc1ccc(C(N)CC(=O)NC(=O)c2ccc(-c3cccc(F)c3)nc2)cc1OC (centres unmarked) [Example 196, N-[3-Amino-3-(3,4-dimethoxyphenyl)propanoyl]-6-(3-fluorophenyl)nicotinamide] | 12.4
CCOC(=O)CC(NC(=O)c1ccc(-c2cccc(C)c2)nc1)c1ccc(OC)cc1 (centres unmarked) [Example 255, Ethyl 3-(4-methoxyphenyl)-3-({[6-(3-methylphenyl)pyridin-3-yl]carbonyl}amino)propanoate] | 38.7
O=C(NCCC1CCCCO1)c1ccc(-c2ccc(F)cc2)nc1 (centres unmarked) [Example 270, 6-(4-Fluorophenyl)-N-[2-(tetrahydro-2H-pyran-2-yl)ethyl]nicotinamide] | 216
CC(NC(=O)c1ccc(-c2cccc(F)c2)nc1)c1ccncn1 (centres unmarked) [Example 443, 6-(3-Fluorophenyl)-N-(1-pyrimidin-4-ylethyl)nicotinamide] | 359
COC(=O)CNC(=O)c1ccc(-c2cccc(C)c2)nc1 [Example 241, Methyl N-{[6-(3-methylphenyl)pyridin-3-yl]carbonyl}glycinate] | 150
O=C(NCc1ccc(Br)cc1)c1ccc(-c2ccccc2)nc1 [Example 513, N-(4-Bromobenzyl)-6-phenylnicotinamide] | 8.9
COc1cccc(-c2ccc(C(=O)NCCN3CCOCC3)cn2)c1 [Example 332, 6-(3-Methoxyphenyl)-N-(2-morpholin-4-ylethyl)nicotinamide] | 326
COc1cccc([C@H](C)NC(=O)c2ccc(-c3cccc(F)c3)nc2)c1 [Example 436, 6-(3-Fluorophenyl)-N-[(1S)-1-(3-methoxyphenyl)ethyl] nicotinamide] | 6.12
COC(=O)[C@H](C)NC(=O)c1ccc(-c2cccc(C)c2)nc1 [Example 219, Methyl N-{[6-(3-methylphenyl)pyridin-3-yl]carbonyl}alaninate] | 89.4

Continued, values first:

IC50 [nM] | Compound
101 | O=C(NCCN1CCCCC1CO)c1ccc(-c2cccc(F)c2)nc1 (centres unmarked) [Example 215, 6-(3-Fluorophenyl)-N-{2-[2-(hydroxymethyl)piperidin-1-yl]ethyl}nicotinamide]
29.2 | Cc1cc(=O)[nH]c(N2CCCC(CNC(=O)c3ccc(-c4cccc(F)c4)nc3)C2)n1 (centres unmarked) [Example 112, 6-(3-Fluorophenyl)-N-{[1-(4-methyl-6-oxo-1,6-dihydropyrimidin-2-yl)piperidin-3-yl]methyl}nicotinamide]
74.5 | Cc1cccc(-c2ccc(C(=O)NC3CCOC3=O)cn2)c1 (centres unmarked) [Example 250, 6-(3-Methylphenyl)-N-(2-oxotetrahydrofuran-3-yl)nicotinamide]
3.03 | Cc1ccc2c(c1)C(NC(=O)c1ccc(-c3cccc(F)c3)nc1)CC(C)(C)O2 (centres unmarked) [Example 530, 6-(3-Fluorophenyl)-N-(2,2,6-trimethyl-3,4-dihydro-2H-chromen-4-yl)nicotinamide]
16.6 | CC(C)Cc1nnc(CCNC(=O)c2ccc(-c3cccc(F)c3)nc2)o1 [Example 206, 6-(3-Fluorophenyl)-N-[2-(5-isobutyl-1,3,4-oxadiazol-2-yl)ethyl]nicotinamide]
31.9 | O=C(NCC1CN(Cc2ccccn2)C(=O)CO1)c1ccc(-c2cccc(F)c2)nc1 (centres unmarked) [Example 67, 6-(3-Fluorophenyl)-N-{[5-oxo-4-(pyridin-2-ylmethyl)morpholin-2-yl]methyl}nicotinamide]
34.5 | Cc1cc(=O)[nH]c(N2CCC(CNC(=O)c3ccc(-c4cccc(F)c4)nc3)CC2)n1 [Example 109, 6-(3-Fluorophenyl)-N-{[1-(4-methyl-6-oxo-1,6-dihdyropyrimidin-2-yl)piperidin-4-yl]methyl}nicotinamide]
3.43 | O=C(NCCNc1nccn2ccnc12)c1ccc(-c2cccc(F)c2)nc1 [Example 104, 6-(3-Fluorophenyl)-N-[2-(imidazo[1,2-a]pyrazin-8-ylamino)ethyl]nicotinamide]
6.44 | Cc1noc(C)c1CCCNC(=O)c1ccc(-c2cccc(F)c2)nc1 [Example 91, N-[3-(3,5-Dimethylisoxazol-4-yl)propyl]-6-(3-fluorophenyl)nicotinamide]
3.24 | O=C(NC[C@H]1COc2ccccc2C1)c1ccc(-c2cccc(F)c2)nc1 [Example 573]
34.3 | CC(C)N1CCN(CCCNC(=O)c2ccc(-c3cccc(F)c3)nc2)C(=O)C1=O [Example 106, 6-(3-Fluorophenyl)-N-[3-(4-isopropyl-2,3-dioxopiperazin-1-yl)propyl]nicotinamide]
175 | Cc1nnc(CNC(=O)c2ccc(-c3cccc(F)c3)nc2)o1 [Example 96, 6-(3-Fluorophenyl)-N-[(5-methyl-1,3,4-oxadiazol-2-yl)methyl]nicotinamide]
26.1 | CC(C)CNC(=O)c1ccc(-c2cccc(F)c2)nc1 [Example 170, 6-(3-Fluorophenyl)-N-isobutylnicotinamide]
35.3 | COc1ccc(CNC(=O)c2ccc(-c3cccc(F)c3)nc2)cc1 [Example 414, 6-(3-Fluorophenyl)-N-(4-methoxybenzyl)nicotinamide]
38.8 | Cc1cc(=O)[nH]c(NCCNC(=O)c2ccc(-c3cccc(F)c3)nc2)n1 [Example 7, 6-(3-Fluorophenyl)-N-{2-[(4-methyl-6-oxo-1,6-dihydropyrimidin-2-yl)amino]ethyl}nicotinamide]
5.32 | O=C(NC1CCCOC1)c1ccc(-c2cccc(F)c2)nc1 (centres unmarked) [Example 63, 6-(3-Fluorophenyl)-N-(tetrahydro-2H-pyran-3-yl)nicotinamide]
9.13 | O=C(NCCN1CCCCC1=O)c1ccc(-c2cccc(F)c2)nc1 [Example 164, 6-(3-Fluorophenyl)-N-[2-(2-oxopiperidin-1-yl)ethyl]nicotinamide]
14.8 | Cc1cn2cc(CNC(=O)c3ccc(-c4cccc(F)c4)nc3)nc2s1 [Example 94, 6-(3-Fluorophenyl)-N-[(2-methylimidazo[2,1-b][1,3]thiazol-6-yl)methyl]nicotinamide]
43.8 | CCCCCNC(=O)c1ccc(-c2cccc(F)c2)nc1 [Example 427, 6-(3-Fluorophenyl)-N-pentylnicotinamide]
41.3 | COCCCNC(=O)c1ccc(-c2cccc(F)c2)nc1 [Example 442, 6-(3-Fluorophenyl)-N-(3-methoxypropyl)nicotinamide]
41.8 | O=C(NCC1(O)CCCCC1)c1ccc(-c2cccc(F)c2)nc1 [Example 26, 6-(3-Fluorophenyl)-N-[(1-hydroxycyclohexyl)methyl] nicotinamide]
61.8 | Cc1cnc(CN2CC(CNC(=O)c3ccc(-c4cccc(F)c4)nc3)OCC2=O)cn1 (centres unmarked) [Example 71, 6-(3-Fluorophenyl)-N-({4-[(5-methylpyrazin-2-yl)methyl]-5-oxomorpholin-2-yl}methyl)nicotinamide]
3.34 | Cc1ccc2c(c1C)OCCC2NC(=O)c1ccc(-c2cccc(F)c2)nc1 (centres unmarked) [Example 531, N-(7,8-Dimethyl-3,4-dihydro-2H-chromen-4-yl)-6-(3-fluorophenyl)nicotinamide]
11.2 | CCOC(=O)CCCCCNC(=O)c1ccc(-c2cccc(F)c2)nc1 [Example 137, Ethyl 6-({[6-(3-fluorophenyl)pyridin-3-yl]carbonyl}amino)hexanoate]

From patent US20110306597A1, “Nicotinamide Derivatives” (priority 2008, published 2011)
